# In US20250092058A1 (priority 2018, published 2025):
# Read-outs that look alike come from different tables or passages of the source.
# What was measured:
# UOK151 = system: UOK151
# Experimental: (§1) MTT assays. […] Viable cells (2500 cells per well) were plated in each well in 96-well plates. After an overnight incubation, cells were treated with and without relevant drugs alone and in combination, respectively, at various concentrations and incubated for 72 hours. MTT, a colorimetric substrate, was added to a final concentration of 0.4 mg/ml to each well. Cells in 96-well plates were further incubated in a 5% CO2 incubator at 37° C. for 4 hours, and then the medium was aspirated. The MTT metabolic product formazan was solubilized by adding 200 ul of DMSO to each well. Absorbance in the relevant wells was measured at 570 nm using an Ultra Microplate Reader (Bio-Tek Instruments). Each experiment was performed at least in triplicate. IC50/EC50 values were calculated from a series of drug dose ranges for each analyzed compound, using GraphPad Prism 6 (GraphPad Software, Inc., La Jolla, CA).
# (§2) The inhibition of cell growth and viability in various cancer cell types were tested using MTT assay for references.
# UOK262 = system: UOK262
# Experimental: as §1, §2
# PDX14244 and PDX27454 = assay: Pancreatic PDX14244 (left flank) and colorectal PDX27454 (right flank) in the same SCID mice; format: in vivo
# Experimental: Human xenograft tumors used.
# The vehicle is the same aqueous suspension without FL7N-1. Experimental SCID mice were subcutaneously implanted with 30-40 mg individual PDX tumors (isolated from maintenance mice) at the flank area (left side for PDX14244, and right side for PDX27454) of SCID mice. […] The animal model of PDX tumors was orally treated weekly for 3 times as shown with black arrows. […] Thus, FL7N-1 may be a priority candidate to be developed for treatment of children rare disease retinoblastoma.
# (§3) The vehicle is the same think aqueous suspension without drug. Experimental SCID mice were subcutaneously implanted with 30-40 mg individual PDX tumors (isolated from maintenance mice) at the flank area (left side for PDX14244, and right side for PDX27454) of SCID mice. […] The animal model of PDX tumors was orally treated weekly for 3 times as shown with black arrows.
# as §3, with “for 4” for “for 3”, “times (one cycle/course,” for “times”, “black arrows).” for “black arrows.”
# as §3, with “times in two doses due to drug limitation then (as” for “times as”, “black arrows).” for “black arrows.”
# T24 = assay: MTT assay T24; format: cell-based; conditions: Table 5 lower part; T24 bladder cancer
# Experimental: as §1, §2
# RT4 = assay: MTT assay RT4; format: cell-based; conditions: Table 5 lower part; RT4 bladder cancer
# Experimental: as §1, §2
# H1376 = system: H1376
# Experimental: as §1, §2
# UMUC-3 = system: UMUC-3
# Experimental: as §1, §2
# PDX10978 = assay: Pancreatic cancer PDX10978 in SCID mice; format: in vivo; conditions: FL118 0.75 mg/kg or gemcitabine 60 mg/kg ip qw×4
# Experimental: Human pancreatic cancer patient-derived xenograft (PDX) tumor mouse model and treatment. Experiments followed the IACUC-approved mouse protocol. Briefly, human PDAC PDX tumors maintained on SCID mice were isolated, and a piece of non-necrotic tumor tissues (30-40 mg) were subcutaneously transplanted into the flank area of female SCID mice. […] In this study, we used the timesaving intraperitoneal (ip) route for drug administration. […] The formulation process was described in detail in our previous patent (PCT/US2011/058558). […] Tumor length (L) and width (W) were measured using digital vernier calipers 1-3 times per week until the end of experimental studies. The tumor volume (v) was calculated using the formula: v=0.5 (L×W^2). Then the tumor size was divided by the day 0 tumor size as percentage tumor size versus day 0. The mean tumor volume ± standard deviation (SD) at each time point was derived from 5 mice in each group. The tumor curves were made using Sigma Plot software.
# It has been recently documented that pancreatic cancer PDXs retain active paracrine/Hedgehog signaling, and desmoplasia is active in PDX tumor mouse models.
# HCT116 = assay: MTT assay HCT116; format: cell-based, human; conditions: Table 8
# Experimental: (§4) MTT assays. […] Each experiment was performed at least in triplicate.
# [1] = system: HT-3 retinoblastoma xenograft tumors; conditions: for antitumor activity and toxicity profile / overall antitumor activity versus toxicity ranking: oral; for antitumor activity and toxicity profile: one time, 3-4 doses; for overall antitumor activity versus toxicity ranking: multiple doses, weekly×4
# Experimental: Human HT-3 retinoblastoma xenograft tumors were initially established by subcutaneously injection of 2-5×10^6 HT-3 cells in a volume of 100-200 μL medium. Mouse models of HT-3 xenografts were set up by subcutaneously inoculating 30-40 mg tumor tissue on the flank of SCID mice. Treatment with individual compounds was initiated 7-14 days after the transplanted tumors reached 100-200 mm^3 (designated day 0). […] The individual compounds were formulated in an organic solvent-free with HPPCD as drug carriers in 2% HPMC (hydroxypropyl methylcellulose) and 1% PG (propylene glycol) in saline (a thick aqueous suspension) for oral administration. The vehicle is the same thick aqueous suspension without drug. A. FL7s-3-treated xenograft tumor curve profile (left panel) and body weight profile (right panel) over the experimental period. B. FL7s-4-treated xenograft tumor curve profile (left panel) and body weight profile (right panel) over the experimental period. C. FL7s-7-treated xenograft tumor curve profile (left panel) and body weight profile (right panel) over the experimental period.
# Human xenograft tumors used. In this invention disclose, human SW620 (colorectal), HT29 (colorectal) and HT-3 (retinoblastoma) cancer cell line-established xenograft tumors were used. Human tumor cell line-derived xenograft tumors are initially established by subcutaneously injecting 2-5×10^6 cultured cancer cells in a volume of 100-150 p L medium into the flank area of severe combined immunodeficiency (SCID) mice. The derived tumors are then passed a couple of generations in mice by transplanting 30-50 mg non-necrotic tumor mass via a trocar for experiments or maintenance. […] PDX tumors were originally established on severe Combined Immunodeficiency (SCID) mice from pancreatic and colorectal cancer patient tumor tissues obtained from metastatic sites of the disease in the clinic.
# To these three novel compounds, we performed in vivo animal model studies to evaluate their antitumor activity and toxicity using the HT-3 retinoblastoma xenograft tumor models. In this experiment, we still took advantage of the newly developed formulation for oral administration of compounds.
# A549 = assay: MTT assay A549; format: cell-based, human; conditions: Table 9
# Experimental: as §4
# A2008 = assay: MTT assay A2008; format: cell-based; conditions: Table 9; A2008
# Experimental: as §1, §2
# HT-3 = assay: MTT assay HT-3; format: cell-based, human; conditions: Table 7; HT-3
# Experimental: as §1, §2
# Y79 = assay: MTT assay Y79; format: cell-based; conditions: Table 7
# Experimental: as §4
# Wer 127 = assay: MTT assay Wer 127; format: cell-based; conditions: Table 7
# Experimental: as §4
# [2] = oral one time, 5, 10 and 15 mg/kg
smiles,measurement,setting,value
CC[C@@]1(O)C(=O)OCc2c1cc1n(c2=O)Cc2c-1nc1cc3c(cc1c2-c1ccc(F)c(F)c1)OCO3 [HX6],IC50/EC50,"UOK151; Table 10, UOK151",4.6 nM
same,IC50/EC50,"UOK262; Table 10, UOK262",4.9 nM
same,"antitumor activity and toxicity, Hx-series",PDX14244 and PDX27454; oral weekly for 3 times,much higher antitumor activity with favorable toxicity
CC[C@@]1(O)C(=O)OCc2c1cc1n(c2=O)Cc2c-1nc1cc3c(cc1c2-c1ccc(OC)cc1)OCO3 [7Q 9],IC50/EC50,T24,0.32 nM
same,IC50/EC50,RT4,3.37 nM
same,IC50/EC50,"H1376; Table 5 lower part, H1376 bladder cancer",>500 nM
same,IC50/EC50,"UMUC-3; Table 5 lower part, UMUC-3 bladder cancer",0.35 nM
same,IC50/EC50,"UOK151; Table 5 lower part, UOK151 kidney cancer",50 nM
same,IC50/EC50,"UOK262; Table 5 lower part, UOK262 kidney cancer",32 nM
same,"antitumor activity, 7Q-series (1)",PDX14244 and PDX27454; oral weekly for 4 times,much higher antitumor activity than the other compounds in this 7Q-series (1)
"Nc1ccn([C@@H]2O[C@H](CO)[C@@H](O)C2(F)F)c(=O)n1 [gemcitabine, reference compound]","antitumor efficacy, single agent",PDX10978,only delayed tumor growth
"CC[C@@]1(O)C(=O)OCc2c1cc1n(c2=O)Cc2c-1nc1cc3c(cc1c2CCN1CCSCC1)OCO3 [Compound 7N3, 20 (S)-7-thiomorpholinylethyl-10,11-methylenedioxy-camptothecin]",IC50/EC50,HCT116,171.9 nM
same,antitumor activity and toxicity profile,[1],great antitumor activity and favorable toxicity profiles
CC[C@@]1(O)C(=O)OCc2c1cc1n(c2=O)Cc2c-1nc1cc3c(cc1c2-c1ccsc1)OCO3 [W-b4],IC50/EC50,A549,1.99 nM
same,IC50/EC50,A2008,31.9 nM
CC[C@@]1(O)C(=O)OCc2c1cc1n(c2=O)Cc2c-1nc1cc3c(cc1c2-c1cnn(C)c1)OCO3 [W-b5],IC50/EC50,A549,2.29 nM
same,IC50/EC50,A2008,17.5 nM
CC[C@@]1(O)C(=O)OCc2c1cc1n(c2=O)Cc2c-1nc1cc3c(cc1c2-c1cc(C(F)(F)F)cc(C(F)(F)F)c1)OCO3 [W-b10/Hx7],IC50/EC50,A549,5.29 nM
same,IC50/EC50,"UOK151; Table 10, UOK151",>500 nM
same,IC50/EC50,"UOK262; Table 10, UOK262",33.4 nM
same,IC50/EC50,A2008,7.31 nM
same,"antitumor activity and toxicity, Hx-series",PDX14244 and PDX27454; oral weekly for 3 times,much higher antitumor activity with favorable toxicity
CC[C@@]1(O)C(=O)OCc2c1cc1n(c2=O)Cc2c-1nc1cc3c(cc1c2-c1ccco1)OCO3 [W-b7],IC50/EC50,A549,0.39 nM
same,IC50/EC50,A2008,0.19 nM
"CC[C@@]1(O)C(=O)OCc2c1cc1n(c2=O)Cc2c-1nc1cc3c(cc1c2CCN1CCOCC1)OCO3 [Compound 7N1, 20 (S)-7-morpholinylethyl-10,11-methylenedioxy-camptothecin]",IC50/EC50,HCT116,11.6 nM
same,IC50/EC50,"H1376; Table 8, H1376",>500 nM
same,IC50/EC50,"UMUC-3; Table 8, UMUC-3",2.05 nM
same,IC50/EC50,"UOK151; Table 8, UOK151",42.8 nM
same,IC50/EC50,"UOK262; Table 8, UOK262",38 nM
same,antitumor activity,[1]; [2],exceptional antitumor activity in all three doses used
same,toxicity (mouse body weight loss),[1]; [2],without showing toxicity
same,antitumor activity and toxicity profile,[1],great antitumor activity and favorable toxicity profiles
same,antitumor activity,PDX14244 and PDX27454; oral weekly for 3 times,very good
"CC[C@@]1(O)C(=O)OCc2c1cc1n(c2=O)Cc2c-1nc1cc3c(cc1c2CCc1ccccc1Cl)OCO3 [FL7-15, 20 (S)-7-(2-chloro-phenethyl)-10,11-methylenedioxy-camptothecin]",IC50/EC50,HT-3,45.81 nM
same,IC50/EC50,Y79,12.59 nM
same,IC50/EC50,Wer 127,>500 nM
same,overall antitumor activity versus toxicity ranking,[1],not as good as FL7-5 and FL7-14
CC[C@@]1(O)C(=O)OCc2c1cc1n(c2=O)Cc2c-1nc1cc3c(cc1c2CCN1CCCCC1C)OCO3 (stereo partly shown) [Compound 7N2],IC50/EC50,HCT116,25.62 nM
same,antitumor activity and toxicity profile,[1],great antitumor activity and favorable toxicity profiles
"CC[C@@]1(O)C(=O)OCc2c1cc1n(c2=O)Cc2c-1nc1cc3c(cc1c2-c1ccncc1)OCO3 [W-b1, 20 (S)-7-(pyridyl-4-)-FL118 (10,11-methylenedioxy-camptothecin)]",IC50/EC50,A549,73.4 nM
same,IC50/EC50,A2008,24.4 nM
"CC[C@@]1(O)C(=O)OCc2c1cc1n(c2=O)Cc2c-1nc1cc3c(cc1c2CCc1ccc(Br)cc1)OCO3 [FL7-17, 20 (S)-7-(4-bromo-phenethyl)-10,11-methylenedioxy-camptothecin]",IC50/EC50,HT-3,6.48 nM
same,IC50/EC50,Y79,1.57 nM
same,IC50/EC50,Wer 127,2.48 nM
same,overall antitumor activity versus toxicity ranking,[1],not as good as FL7-5 and FL7-14
CC[C@@]1(O)C(=O)OCc2c1cc1n(c2=O)Cc2c-1nc1cc3c(cc1c2-c1ccc(CO)cc1)OCO3 [W-b9],IC50/EC50,A549,1.28 nM
same,IC50/EC50,A2008,3.49 nM
CC[C@@]1(O)C(=O)OCc2c1cc1n(c2=O)Cc2c-1nc1cc3c(cc1c2CCc1cccc(F)c1)OCO3 [FL7s-7],IC50/EC50,HT-3,2.22 nM
same,IC50/EC50,Y79,0.29 nM
same,IC50/EC50,Wer 127,4.76 nM
same,overall antitumor activity versus toxicity ranking,[1],top two candidates
CC[C@@]1(O)C(=O)OCc2c1cc1n(c2=O)Cc2c-1nc1cc3c(cc1c2/C=C/c1ccc(F)cc1)OCO3 [FL7s-3],IC50/EC50,HT-3,1.68 nM
same,IC50/EC50,Y79,0.61 nM
same,IC50/EC50,Wer 127,40.69 nM
same,overall antitumor activity versus toxicity ranking,[1],top two candidates
